Data as given in patent US12391687B2, “Five-and-six-membered heterocyclic compound and use thereof as protein receptor kinase inhibitor” (SHANGHAI ENNOVABIO PHARMACEUTICALS CO., LTD., priority 2018, dated 2025).

How the values were obtained:
[1] = target: recombinant human TRKA (G595R) (Homo sapiens (Human), UniProt P04629, G595R); assay: In vitro activity test on mutant TRKA (G595R) (HTRF kinEASE TK); format: biochemical; details: 4.5 μM ATP, 30 min, room temperature; read-out: TRKA (G595R) IC 50
Method: The recombinant human TRKA (G595R), TRKA (G667C) and TRKC (G623R) proteins were purchased from SignalChem. HTRF kinEASE TK kit was purchased from Cisbio Bioassays. Synergy Neo 2 of Biotek was used to read the plate.
The tested compounds were subjected to 4-fold serial dilution to reach a final concentration of 1 μM to 0.004 nM (10 concentrates), duplicates for each concentration; and the final concentration of DMSO in the reaction was 1%.
0.12 ng/μL TRKA (G595R) kinase, 1 μM TK Substrate-biotin polypeptide substrate, 4.5 μM ATP, 1× enzymatic buffer, 5 mM MgCl2, and 1 mM DTT. The assay plate was White Proxiplate384-Plus plate (PerkinElmer), and the reaction was incubated at room temperature for 30 min, and the assay volume was 10 μL.
10 μL of detection reagent (containing 0.125 μM SA-XL665 and 5 μL 1×TK-Antibody) was added to the plate and incubated overnight at room temperature, and Synergy Neo 2 was used to read the plate.
(§1) The value of 665/620 Ratio minus the value of negative control wells without enzyme, then the obtained value was converted according to the following formula into inhibition rate (%)=(1−Ratiotest/Ratiomax)×100%. Ratiomax was the value of positive controls without tested compound, and Ratiotest was the value of each concentration of different compounds. IC50 (nM) data was obtained by 4 parameter curve fitting (see Table 3).

Recombinant human TRKC = Recombinant human TRKC (Homo sapiens (Human), UniProt Q16288); assay: In vitro activity test on TRKC kinase (HTRF kinEASE TK); format: biochemical; details: 25.64 μM ATP, 40 min, room temperature
Method: (§2) Recombinant human TRKA, TRKB, TRKC proteins were purchased from Carna Biosciences. HTRF kinEASE TK kit was purchased from Cisbio Bioassays. Synergy Neo 2 of Biotek was used to read the plate.
(§3) The tested compounds were subjected to 3-fold serial dilution to reach a final concentration of 1 μM to 0.05 nM (10 concentrations), duplicates for each concentration; and the DMSO concentration in the detection reaction was 1%.
(§4) 0.037 ng/μL TRKC protein kinase, 1 μM TK Substrate-biotin polypeptide substrate, 25.64 μM ATP, 1× enzymatic buffer, 5 mM MgCl2, and 1 mM DTT. The detection plate was White Proxiplate 384-Plus plate (PerkinElmer), the reaction was incubated at room temperature for 40 min, and the assay volume was 10 μL.
(§5) 10 μL of detection reagent (containing 0.125 μM SA-XL665 and 5 μL 1×TK-Antibody) was added to the plate and incubated overnight at room temperature. Synergy Neo 2 was used to read the plate.
as §1, with “The” for “The value of”, “Ratio” for “Ratio minus the value of negative control wells without enzyme, then the obtained value”, “1).” for “3).”

Recombinant human TRKB = Recombinant human TRKB (Homo sapiens (Human), UniProt Q16620); assay: In vitro activity test on TRKB kinase (HTRF kinEASE TK); format: biochemical; details: 4.77 μM ATP, 50 min, room temperature
Method: as §2, §3
as §4, with “TRKB” for “TRKC”, “4.77” for “25.64”, “MgCl2, 1 mM MnCl2” for “MgCl2,”, “assay” for “detection”, “50” for “40”
as §5
as §1, with “The” for “The value of”, “Ratio” for “Ratio minus the value of negative control wells without enzyme, then the obtained value”, “1).” for “3).”

KM12-LUC cells = assay: KM12-LUC cell proliferation experiment (CellTiter-Glo); format: cell-based; details: human colon cancer cell line with TPM3-NTRK1 fusion, 72 hours
Method: Human colon cancer cell line KM12-LUC (LUC, stably expressing Luciferase) expressing TPM3-NTRK1 fusion gene was used to evaluate cellular activity of the compounds. The TRK fusion gene in KM12-LUC cells makes the sustained activation of TRK and the downstream signaling pathways associated with cell proliferation such as MAPK-ERK, PI3K-AKT, etc independent of the stimulation of extracellular growth factor. […] The method was as follows: On the first day, the cells were seeded into 384-well plates at 2000 cells/well; on the second day, different concentrations of test compounds were added; and on the 5th day, CellTiter-Glo (Promega) was added to detect cell viability, and the cell proliferation inhibition rate at 72 hours was calculated. Statistical analysis was carried out by PRISM5 and the IC50 of the test compounds was calculated.

Recombinant human TRKA = Recombinant human TRKA (Homo sapiens (Human), UniProt P04629); assay: In vitro activity test on TRKA kinase (HTRF kinEASE TK); format: biochemical; details: 14.68 μM ATP, 40 min, room temperature
Method: as §2, §3
0.2 ng/μL TRKA protein kinase, 1 μM TK Substrate-biotin polypeptide substrate, 14.68 μM ATP, 1×enzymatic buffer, 5 mM MgCl2, and 1 mM DTT. The assay plate was White Proxiplate384-Plus plate (PerkinElmer), and the reaction was incubated at room temperature for 40 min, and the assay volume was 10 μL.
as §5
as §1, with “The” for “The value of”, “Ratio” for “Ratio minus the value of negative control wells without enzyme, then the obtained value”, “1).” for “3).”

recombinant human TRKA (G595R), sequence (P04629 33-796 G595R): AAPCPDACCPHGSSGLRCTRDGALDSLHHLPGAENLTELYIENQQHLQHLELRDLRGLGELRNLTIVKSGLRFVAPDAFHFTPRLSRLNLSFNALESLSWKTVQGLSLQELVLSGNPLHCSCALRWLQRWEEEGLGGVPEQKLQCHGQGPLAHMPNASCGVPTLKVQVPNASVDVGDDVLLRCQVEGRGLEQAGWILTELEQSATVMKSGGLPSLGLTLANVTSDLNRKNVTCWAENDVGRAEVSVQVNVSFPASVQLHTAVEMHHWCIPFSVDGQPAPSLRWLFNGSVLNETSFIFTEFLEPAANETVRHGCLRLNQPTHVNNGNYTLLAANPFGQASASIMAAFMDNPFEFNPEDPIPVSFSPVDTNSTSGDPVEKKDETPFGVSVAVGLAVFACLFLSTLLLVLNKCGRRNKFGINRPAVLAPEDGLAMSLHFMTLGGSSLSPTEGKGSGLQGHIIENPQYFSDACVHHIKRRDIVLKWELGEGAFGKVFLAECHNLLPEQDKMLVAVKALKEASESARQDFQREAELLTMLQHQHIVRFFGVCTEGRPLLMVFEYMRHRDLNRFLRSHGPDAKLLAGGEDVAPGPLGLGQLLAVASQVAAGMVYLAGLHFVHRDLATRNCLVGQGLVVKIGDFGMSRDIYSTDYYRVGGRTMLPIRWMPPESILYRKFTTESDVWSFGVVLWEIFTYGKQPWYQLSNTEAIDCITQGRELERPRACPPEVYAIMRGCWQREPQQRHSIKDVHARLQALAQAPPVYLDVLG
Recombinant human TRKB, sequence (Q16620 32-822): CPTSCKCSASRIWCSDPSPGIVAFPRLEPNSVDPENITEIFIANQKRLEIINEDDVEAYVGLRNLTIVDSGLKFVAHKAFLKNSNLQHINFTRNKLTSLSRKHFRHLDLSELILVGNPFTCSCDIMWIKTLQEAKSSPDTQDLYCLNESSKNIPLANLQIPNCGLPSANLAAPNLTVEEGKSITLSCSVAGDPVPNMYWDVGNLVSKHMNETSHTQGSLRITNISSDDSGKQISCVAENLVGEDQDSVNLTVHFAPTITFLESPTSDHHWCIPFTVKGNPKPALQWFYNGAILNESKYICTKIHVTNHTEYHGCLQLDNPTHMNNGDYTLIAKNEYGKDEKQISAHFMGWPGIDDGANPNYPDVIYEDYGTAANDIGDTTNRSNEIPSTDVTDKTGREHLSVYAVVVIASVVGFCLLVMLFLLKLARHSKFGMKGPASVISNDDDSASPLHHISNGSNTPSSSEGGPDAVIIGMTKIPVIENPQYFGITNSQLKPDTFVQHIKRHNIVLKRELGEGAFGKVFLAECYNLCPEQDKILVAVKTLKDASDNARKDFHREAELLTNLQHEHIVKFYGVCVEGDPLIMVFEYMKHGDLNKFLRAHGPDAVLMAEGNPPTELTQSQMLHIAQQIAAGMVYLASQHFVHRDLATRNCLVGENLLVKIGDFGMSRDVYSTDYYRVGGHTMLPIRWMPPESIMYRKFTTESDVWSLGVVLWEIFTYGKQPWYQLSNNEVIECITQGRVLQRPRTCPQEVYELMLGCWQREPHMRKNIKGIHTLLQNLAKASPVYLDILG
Recombinant human TRKC, sequence (Q16288 32-839): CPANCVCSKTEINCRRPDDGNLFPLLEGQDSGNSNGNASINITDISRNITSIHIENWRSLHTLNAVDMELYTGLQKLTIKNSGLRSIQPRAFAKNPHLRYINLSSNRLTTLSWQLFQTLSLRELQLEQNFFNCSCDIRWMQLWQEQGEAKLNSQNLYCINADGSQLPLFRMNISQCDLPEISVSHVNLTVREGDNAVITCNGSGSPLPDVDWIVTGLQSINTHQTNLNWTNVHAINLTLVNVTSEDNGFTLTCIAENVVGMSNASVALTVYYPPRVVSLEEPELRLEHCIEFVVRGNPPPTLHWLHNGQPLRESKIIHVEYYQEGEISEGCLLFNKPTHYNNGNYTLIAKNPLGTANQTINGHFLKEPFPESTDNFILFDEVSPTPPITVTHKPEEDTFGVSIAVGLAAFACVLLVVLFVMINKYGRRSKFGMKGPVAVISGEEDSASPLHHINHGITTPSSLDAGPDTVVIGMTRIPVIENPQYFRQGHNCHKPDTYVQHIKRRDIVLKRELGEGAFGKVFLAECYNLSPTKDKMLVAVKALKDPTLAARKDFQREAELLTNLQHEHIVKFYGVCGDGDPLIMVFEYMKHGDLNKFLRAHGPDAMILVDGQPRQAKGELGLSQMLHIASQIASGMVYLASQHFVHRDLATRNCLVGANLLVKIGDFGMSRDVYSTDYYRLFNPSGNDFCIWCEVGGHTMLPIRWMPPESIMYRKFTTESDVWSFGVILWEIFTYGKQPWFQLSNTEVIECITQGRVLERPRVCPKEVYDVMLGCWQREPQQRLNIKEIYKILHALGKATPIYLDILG
Recombinant human TRKA, sequence (P04629 33-796): as the sequence (P04629 33-796 G595R) above, with R563G counted along it

Row | SMILES | IC50 [1] [nM] | IC50 (Recombinant human TRKC) [nM] | IC50 (Recombinant human TRKB) [nM] | IC50 (KM12-LUC cells) [nM] | IC50 (Recombinant human TRKA) [nM]
1 | Fc1ccc(F)c([C@H]2C[C@H](F)CN2c2n[nH]c3ncc(-c4cnn(C5CCNCC5)c4)cc23)c1 [Example 22, 3-((2R,4S)-2-(2,5-difluorophenyl)-4-fluoropyrrolidin-1-yl)-5-(1-(piperidin-4-yl)-1H-pyrazol-4-yl)-1H-pyrazolo[3,4-b]pyridine] | < 1 | < 1 | < 1 | < 10 | < 1
2 | Fc1ccc(F)c([C@H]2C[C@H](F)CN2c2n[nH]c3ncc(-c4cnn([C@@H]5CCNC5)c4)cc23)c1 [Example 24, 3-((2R,4S)-2-(2,5-difluorophenyl)-4-fluoropyrrolidin-1-yl)-5-(1-((R)-pyrrolidin-3-yl)-1H-pyrazol-4-yl)-1H-pyrazolo[3,4-b]pyridine] | < 1 | < 100 | < 500 | < 10 | < 10
3 | Fc1ccc(F)c([C@H]2C[C@H](F)CN2c2n[nH]c3ncc(-c4cnn([C@H]5CCNC5)c4)cc23)c1 [Example 25, 3-((2R,4S)-2-(2,5-difluorophenyl)-4-fluoropyrrolidin-1-yl)-5-(1-((S)-pyrrolidin-3-yl)-1H-pyrazol-4-yl)-1H-pyrazolo[3,4-b]pyridine] | < 1 | < 1 | < 1 | < 10 | < 1
4 | CN1CC(n2cc(-c3cnc4[nH]nc(N5C[C@@H](F)C[C@@H]5c5cc(F)ccc5F)c4c3)cn2)C1 [Example 29, 3-((2R,4S)-2-(2,5-difluorophenyl)-4-fluoropyrrolidin-1-yl)-5-(1-(1-methylazetidin-3-yl)-1H-pyrazol-4-yl)-1H-pyrazolo[3,4-b]pyridine] | < 10 | < 1 | < 1 | < 10 | < 1
5 | Fc1ccc(F)c([C@H]2C[C@H](F)CN2c2n[nH]c3ncc(-c4cnn(CC(F)F)c4)cc23)c1 [Example 30, 5-(1-(2,2-difluoroethyl)-1H-pyrazol-4-yl)-3-((2R,4S)-2-(2,5-difluorophenyl)-4-fluoropyrrolidin-1-yl)-1H-pyrazolo[3,4-b]pyridine] | < 1 | < 1 | < 1 | < 10 | < 1
6 | CC(C)(O)Cn1cc(-c2cnc3[nH]nc(N4C[C@@H](F)C[C@@H]4c4cc(F)ccc4F)c3c2)cn1 [Example 32, 1-(4-(3-((2R,4S)-2-(2,5-difluorophenyl)-4-fluoropyrrolidin-1-yl)-1H-pyrazolo[3,4-b]pyridin-5-yl)-1H-pyrazol-1-yl)-2-methylpropan-2-ol] | < 1 | < 1 | < 1 | < 1 | < 1
7 | CN(C)CCn1cc(-c2cnc3[nH]nc(N4C[C@@H](F)C[C@@H]4c4cc(F)ccc4F)c3c2)cn1 [Example 33, 2-(4-(3-((2R,4S)-2-(2,5-difluorophenyl)-4-fluoropyrrolidin-1-yl)-1H-pyrazolo[3,4-b]pyridin-5-yl)-1H-pyrazol-1-yl)-N,N-dimethylethan-1-amine] | < 1 | < 1 | < 1 | < 1 | < 1
8 | Fc1ccc(F)c([C@H]2C[C@H](F)CN2c2n[nH]c3ncc(-c4cnn(CC(F)(F)F)c4)cc23)c1 [Example 35, 3-((2R,4S)-2-(2,5-difluorophenyl)-4-fluoropyrrolidin-1-yl)-5-(1-(2,2,2-trifluoroethyl)-1H-pyrazol-4-yl)-1H-pyrazolo[3,4-b]pyridine] | < 1 | < 1 | < 1 | < 10 | < 1
9 | Fc1ccc(F)c([C@H]2C[C@H](F)CN2c2n[nH]c3ncc(-c4ccn(CC(F)F)n4)cc23)c1 [Example 36, 5-(1-(2,2-difluoroethyl)-1H-pyrazol-3-yl)-3-((2R,4S)-2-(2,5-difluorophenyl)-4-fluoropyrrolidin-1-yl)-1H-pyrazolo[3,4-b]pyridine] | < 1 | < 1 | < 1 | < 10 | < 1
10 | COCc1nnc(-c2cnc3[nH]nc(N4C[C@@H](F)C[C@@H]4c4cc(F)ccc4F)c3c2)o1 [Example 37, 2-(3-((2R,4S)-2-(2,5-difluorophenyl)-4-fluoropyrrolidin-1-yl)-1H-pyrazolo[3,4-b]pyridin-5-yl)-5-(methoxymethyl)-1,3,4-oxadiazole] | < 1 | < 1 | < 1 | < 10 | < 1
